Experiments:
[1] = test system: HaCaT, NHDK, THP-1, MRC5 and HDF; experiment: H2O2 production by cells stimulated with P. acnes, overall statement for the five cell lines; type: cell-based, human; settings: pretreatment of P. acnes strains with small peptide 2.5 to 20 μM; five cell lines and three strains tested
Description: FIG. 17: Dose-dependent inhibition of H2O2 production by fibroblast pre-treated by small Fg1-generated peptides and stimulated by P. acnes. MRC5 cell were incubated for 24 h with small peptides Fg1.1 (light gray bar), Fg1.2 (horizontal line bar), Fg1.3 (hatched bar), Fg1.4 (dark gray bar), Fg1.5 (dotted bar) at concentrations ranging from 2.5 to 20 μM. Measurement of hydrogen peroxide production was realized by spectrofluorometry as described in Materials and Methods. Controls experiments were done with unstimulated MRC5 cell (white bar) and MRC5 stimulated with P. acnes (black bar). Data are means±S.D. of three separate experiments. Statistical significance is indicated by * (P<0.05), ** (P<0.01), *** (P<0.001), and **** (P<0.0001), respectively.
(§1) All cells lines (5·10^4 to 10^5 cells/well) were seeded in 96-well plates (Corning Costar, Brumath, France) and treated as previously described. After stimulation, cells were washed three times in PBS and incubated with 100 μl per wells of 5 μM DHE (for determination of O2^●−) or 5 μM H2-DCFDA (for determination of H2O2) for 30 min as described previously and fluorescence intensity was recorded every hour over a period of 5 h. Fluorescence excitation/emission maxima were for DHE: 480/610 nm and for H2-DCFDA: 507/525 nm. At the end of the experiment, the number of adherent cells was evaluated by the crystal violet assay as described below. O2^●−, and H2O2 were assayed by spectrofluorimetry on a Fusion spectrofluorimeter (PackardBell, Paris, France). Levels of ROS were calculated in each sample as follows: reactive oxygen species rate (arbitrary units/min/10^6 cells)=(fluorescence intensity [arbitrary units] at T5h—fluorescence intensity [arbitrary units] at To/300 minutes/number of adherent cells as measured by the crystal violet assay, and were expressed as arbitrary unit (A.U.).
(§2) To assess the efficacy of the small Fg1-related peptide, the production of H2O2 by several cell lines (HaCaT, NHDK, THP-1, MRC5 and HDF) stimulated by three P. acnes strains 6919, RON and PIE was measured, in presence or not with the small peptides. The amount of H2O2 produced is compared to that produced by the stimulated cells with untreated bacteria. Production baseline is obtained by measuring H2O2 on unstimulated cells. The measurement of the production of H2O2 is performed by spectrofluorimetry in the presence of specific fluorochromes directly on the monolayer cell.
(§3) Two sets of experiments have been implemented: • I) The cells are stimulated (18 h at 37° C.) by P. acnes strains previously pretreated with Fg1.1, Fg1.2, Fg1.3, Fg1.4, and Fg1.5 small peptides at the final concentrations ranging from 2.5 to 20 μM for 1 h at 37° C.; • II) The cells are pretreated first with the five small peptides at the final concentrations ranging from 2.5 to 20 μM for 24 h at 37° C. and stimulated (18 h at 37° C.) by P. acnes strains.
FIG. 17 corresponds to the results obtained with the P. acnes RON strain on the fibroblast MRCS cell line and are representative of the results obtained with all P. acnes and cells lines tested (Table 6).

HaCaT cells = experiment: H2O2 production by P. acnes-stimulated HaCaT (spectrofluorimetry, H2-DCFDA); type: cell-based, human; settings: small peptides 2.5 to 20 μM
Description: (§4) For experiences of stimulation with P. acnes, cells were incubated with the P. acnes suspension adjusted at the appropriate concentration, pre-treated for 1 h at 37° C. or not with fibrinogen recombinant peptides Fg1 and Fg2 at the concentrations 0.87, 1.75, 3.5 or 7 μM for the desired period of time at 37° C. in 5% CO2.
as §1
(§5) To assess the efficacy of Fg1 recombinant peptide, the production of O2^∘− and H2O2 by HaCaT cells NHDK, THP-1, MRC5 and HDF stimulated by pretreated P. acnes strains 6919, RON and PIE was measured. The amount of ROS produced was compared to that produced by the stimulated cells with untreated bacteria. Production baseline was obtained by measuring ROS on unstimulated cells. The production of IL-1ß, IL-8, IL-12 and TNF-α was also measured in all conditions cited above. The measurement of the production of ROS is performed by spectrofluorimetry in the presence of specific fluorochromes directly on the monolayer cell. Measurement of cytokine production was performed in parallel on the cell culture supernatant.
(§6) Two sets of experiments were implemented: 1) The cells were stimulated (18 h at 37° C.) by P. acnes strains previously pretreated with Fg1 and Fg2 peptides at the final concentrations ranging from 0.87 to 7 μM for 1 h at 37° C.; and 2) The cells were pretreated first with Fg1 and Fg2 peptides at the final concentrations ranging from 0.87 to 7 μM for 24 h at 37° C. and stimulated (18 h at 37° C.) by P. acnes strains.
as §2, §3

NHDK cells = experiment: H2O2 production by P. acnes-stimulated NHDK; type: cell-based, human; settings: cells first pretreated, small peptides 2.5 to 20 μM
Description: as §4, §1, §5, §6, §2, §3

MRC5 cells = experiment: H2O2 production by P. acnes-stimulated MRC5; type: cell-based, human; settings: small peptides 2.5 to 20 μM
HDF cells = experiment: H2O2 production by P. acnes-stimulated HDF; type: cell-based, human; settings: cells first pretreated, small peptides 2.5 to 20 μM
Description: as §4, §1, §5, §6, §2, §3

ThP1 cells = experiment: H2O2 production by P. acnes-stimulated ThP1; type: cell-based, human; settings: small peptides 2.5 to 20 μM
Description: as §4, §1, §5, §6, §2, §3

[2] = test system: P. acnes surface proteins; experiment: Binding of biotinylated ECM ligands to immobilized P. acnes surface proteins; set-up: species or system Propionibacterium acnes; settings: 25 μg/ml of protein immobilized per well; various quantity of biotinylated Fg and Collagen I
Description: FIG. 2: Binding of P. acnes surface protein to purified human fibrinogen. (A) P. acnes surface proteins (0.8 to 50 μg/ml) were immobilized onto a 96-well polystyrene plate and probed with biotinylated fibrinogen (0.1 μg/ml) for 2 h at room temperature. (B) P. acnes surface proteins (25 μg/ml) were immobilized onto a 96-well polystyrene plate and probed with various concentrations of biotinylated fibrinogen ranging from 0.1 to 16 μg/ml for 2 h at room temperature. Bound biotinylated fibrinogen were detected with HRP-streptavidine as described in Materials and Methods.
To characterize the interaction between P. acnes and ligands, we used biotinylated molecules in quantitative and qualitative assays. In a first set of assays, ECM ligands (fibrinogen, collagens I, IV, VI and VIII) were used as labelled proteins with biotin. In a second set of assays, P. acnes surface proteins (total extract and purified Pfg) were biotinylated. For quantitative analysis, unlabeled protein were diluted into 50 mM carbonate-bicarbonate, pH 9.6 buffer to yield a protein concentration ranging from 0.01 to 50 μg/ml, and then immobilized to 96-well polystyrene plates at 4° C. overnight. […] After washing, bound peroxidase was detected using the chromogenic peroxidase substrate ABTS. […] Binding activity was detected by incubating the membranes with 20 ml of PBT containing biotinylated proteins (0.1 μg/ml) for 2 h at room temperature followed by three washes with PBT. Bound biotinylated proteins were detected by incubating the membrane with peroxidase conjugated to streptavidin (0.5 μg/ml in PBT) for 1 h at room temperature. After washing, bound peroxidase activity was detected using 3,3′-diaminobenzidine in the presence of CoCl2 and H2O2 (Harlow and Lane, 1988).
In order to identify P. acnes surface protein recognized by ECM ligands, we used the most commons ECM proteins recognize by skin related bacteria like collagens and fibrinogen. […] To identify surface proteins, P. acnes total heat protein extracts were electrophoretically separated and detected by silver staining (FIG. 1B). […]

[3] = P. acnes 6919, set I, bacteria first pretreated
[4] = P. acnes 6919, set II, cells first pretreated
[5] = P. acnes PIE, set I, bacteria first pretreated
[6] = P. acnes PIE, set II, cells first pretreated
[7] = P. acnes RON, set I, bacteria first pretreated
[8] = P. acnes RON, set II, cells first pretreated

Row | Substance | Inhibition of H2O2 production [1] | Inhibition of Hydrogen peroxide (H2O2) production (HaCaT cells; [3]) | Inhibition of Hydrogen peroxide (H2O2) production (HaCaT cells; [4]) | Inhibition of Hydrogen peroxide (H2O2) production (HaCaT cells; [5]) | Inhibition of Hydrogen peroxide (H2O2) production (HaCaT cells; [6]) | Inhibition of Hydrogen peroxide (H2O2) production (HaCaT cells; [7]) | Inhibition of Hydrogen peroxide (H2O2) production (NHDK cells; P. acnes 6919, set II) | Inhibition of Hydrogen peroxide (H2O2) production (NHDK cells; P. acnes PIE, set II) | Inhibition of Hydrogen peroxide (H2O2) production (NHDK cells; P. acnes RON, set II) | Inhibition of Hydrogen peroxide (H2O2) production (MRC5 cells; [3]) | Inhibition of Hydrogen peroxide (H2O2) production (MRC5 cells; [4]) | Inhibition of Hydrogen peroxide (H2O2) production (MRC5 cells; [5]) | Inhibition of Hydrogen peroxide (H2O2) production (MRC5 cells; [6]) | Inhibition of Hydrogen peroxide (H2O2) production (MRC5 cells; [7]) | Inhibition of Hydrogen peroxide (H2O2) production (HDF cells; P. acnes 6919, set II) | Inhibition of Hydrogen peroxide (H2O2) production (HDF cells; P. acnes PIE, set II) | Inhibition of Hydrogen peroxide (H2O2) production (HDF cells; P. acnes RON, set II) | Inhibition of Hydrogen peroxide (H2O2) production (ThP1 cells; [3]) | Inhibition of Hydrogen peroxide (H2O2) production (ThP1 cells; [4]) | Inhibition of Hydrogen peroxide (H2O2) production (ThP1 cells; [5]) | other results
1 | YRARPAKAAATQKKVERKAPDAGGCLHADPDLGVLC (fragment Fg1.3) [small peptide generated from Fg1] | did not |  |  |  |  |  |  |  |  |  |  |  |  |  |  |  |  |  |  |  | 
2 | MKRMVSWSFHKLKTMKHLLLLLLCVFLVKSQGVND (fragment Fg1.1) [small peptide generated from Fg1] | inhibits the production of H2O2 in a dose-dependent manner | pos | pos | pos | pos | pos | pos | pos | pos | pos | pos | pos | pos | pos | pos | pos | pos | pos | pos | pos | Inhibition of Hydrogen peroxide (H2O2) production (ThP1 cells; [6]): pos; Inhibition of Hydrogen peroxide (H2O2) production (ThP1 cells; [7]): pos; Inhibition of Hydrogen peroxide (H2O2) production (ThP1 cells; [8]): pos
3 | NEEGFFSARGHRPLDKKREEAPSLRPAPPPISGGG (fragment Fg1.2) [small peptide generated from Fg1] | did not |  |  |  |  |  |  |  |  |  |  |  |  |  |  |  |  |  |  |  | 
4 | APSLRPAPPPISGGGYRARPAKAAATQKKV (fragment Fg1.5) [small peptide generated from Fg1, overlapping Fg1.2 and Fg1.3] | did not |  |  |  |  |  |  |  |  |  |  |  |  |  |  |  |  |  |  |  | 
5 | LLLCVFLVKSQGVNDNEEGFFSARGHRPLD (fragment Fg1.4) [small peptide generated from Fg1, overlapping Fg1.1 and Fg1.2] | inhibits the production of H2O2 in a dose-dependent manner | pos | pos | pos | pos | pos | pos | pos | pos | pos | pos | pos | pos | pos | pos | pos | pos | pos | pos | pos | Inhibition of Hydrogen peroxide (H2O2) production (ThP1 cells; [6]): pos; Inhibition of Hydrogen peroxide (H2O2) production (ThP1 cells; [7]): pos; Inhibition of Hydrogen peroxide (H2O2) production (ThP1 cells; [8]): pos
6 | collagen I: commercial ECM ligand, biotinylated, tested for binding to P. acnes surface proteins [reference compound] |  |  |  |  |  |  |  |  |  |  |  |  |  |  |  |  |  |  |  |  | Binding activity of biotinylated ligand to immobilized P. acnes total surface protein [2]: No binding activity
